Assay results as given in patent US20260232607A1, “COMPOSITIONS AND METHODS INVOLVING ISOLATED COMPOUNDS” (CuraSen Therapeutics, Inc., priority 2022, published 2026).
Read-outs that look alike come from different tables or passages of the source. One block for each compound: values may come before it.

What was measured:
[1] = biological target: T1, β1-AR (Homo sapiens, UniProt P08588); assay: cAMP Gs HTRF assay, inhibition of isoproterenol-stimulated cAMP, affinity by Leff-Dougall equation; type: cell-based; conditions: CHO-K1 cells, approximate EC80 isoproterenol
T1 construct: expressed in transfected cells; host or cells: CHO-K1
Text: When cAMP turnover is reduced by blocking phosphodiesterases with IBMX, cAMP accumulation occurs, and this accumulation is detected in the cAMP Gs Homogenous Time Resolved Fluorescence (HTRF) assay. The HTRF assay is a competitive inhibition assay. Endogenous cAMP, produced by stimulated cells, competes with and prevents FRET between acceptor-labeled cAMP and donor-labeled cAMP antibody. Increases in endogenous cAMP therefore cause a reduction in HTRF signal, expressed as a ratio of FRET acceptor fluorescence and FRET donor fluorescence.
cAMP HTRF measurements were performed broadly according to the cAMP Gs dynamic kit protocol (Cisbio/Perkin Elmer, 62AM4PEC). Compounds were prepared at 2× final concentration to accommodate the subsequent addition of cells. […] Test compounds were serially diluted across the plate by nine 5-fold dilutions to generate a 10-point dose-response curve.
384 well plates containing compound were covered and stored at room temperature until resuspended cell addition.
D2-labelled cAMP (Acceptor) and Europium cryptate labelled cAMP antibody (Donor) (Cisbio/Perkin Elmer 62AM4PEC) were dissolved in water following the manufacturer's instructions, aliquoted and stored at −80° C.
CHO-K1 cells expressing exogenous β-ARs were resuspended using methods as described above, were recovered from flasks using PBS […] (Caisson PBL02) and centrifuged at 250×g for 5 minutes in a 50 ml falcon tube. PBS/versene was removed by aspiration and cells were resuspended in a minimal volume of room temperature 1× stimulation buffer+IBMX prior to cell counting. 5 ul cells of correct density (2000 cells/well) were added to compound in assay plates using a Multidrop Combi (Thermofisher). Cells and compounds were covered with a clear plate seal (Axygen PCR-SP) and incubated at 37° C., 5% CO2 for 30 minutes. cAMP accumulation was then stopped by adding 10 μL HTRF detection reagents in lysis buffer using the Multidrop Combi, plates were covered with an aluminum plate seal (Axygen PCR-AS-600) and agitated (Heidolph Titramax 1000, setting 600) for at least 2 hours, to allow competition between D2-cAMP and stimulated cAMP for the donor-labelled cAMP antibody to reach equilibrium.
HTRF was detected using a Tecan Spark plate reader, operated using SparkControl™ software, using the TR fluorescence intensity setting. Both donor and acceptor was excited at 320 nm, detected after 100 μs delay, with 400 μs integration time, and 50 flashes per read. […] To standardize reads across experiments, camera gain was manually set to 120 for donor detection, and 140 for acceptor detection.

[2] = In vivo PK in rats (IV and PO); conditions: male SD rat
Experimental: The rat pharmacokinetics studies of exemplary compounds NI-C and NI-D were conducted with male SD rats. These rats were typically about 6-8 weeks old, weighing 200 g to 300 g. Animals were fasted overnight and have free access to food 4 hours after dosing. A required volume of vehicle was added to reach the target concentration of the test article and vehicle component to prepare for the dosing. The dosing vehicle was PEG400 or 30% PEG400 in saline for IV, or 0.5% methylcellulose in water for PO. For IV dosing, the animals were administered intravenously via tail vein. For PO dosing, the animals were administered via oral gavage. After dosing, blood sample was collected (~0.2 mL per time point) through jugular vein or heart puncture. Blood of each sample was transferred into plastic micro centrifuge tubes containing EDTA-K2. Collection tubes with blood samples and anticoagulant were inverted several times for proper mixing of the tube contents and then placed on wet ice. The blood samples were centrifuged at 2000 g for 5 minutes at 4° C. to obtain plasma which was stored in a freezer at −75±15° C. prior to analysis. Samples were analyzed using LC-MS/MS. WinNonlin were used for pharmacokinetic calculations.

[3] = biological target: T2, OATP1A2 (Homo sapiens, UniProt P46721); assay: Uptake in OATP1A2-transfected cells versus control cells; conditions: 2-fold threshold
T2 sequence (P46721 1-670): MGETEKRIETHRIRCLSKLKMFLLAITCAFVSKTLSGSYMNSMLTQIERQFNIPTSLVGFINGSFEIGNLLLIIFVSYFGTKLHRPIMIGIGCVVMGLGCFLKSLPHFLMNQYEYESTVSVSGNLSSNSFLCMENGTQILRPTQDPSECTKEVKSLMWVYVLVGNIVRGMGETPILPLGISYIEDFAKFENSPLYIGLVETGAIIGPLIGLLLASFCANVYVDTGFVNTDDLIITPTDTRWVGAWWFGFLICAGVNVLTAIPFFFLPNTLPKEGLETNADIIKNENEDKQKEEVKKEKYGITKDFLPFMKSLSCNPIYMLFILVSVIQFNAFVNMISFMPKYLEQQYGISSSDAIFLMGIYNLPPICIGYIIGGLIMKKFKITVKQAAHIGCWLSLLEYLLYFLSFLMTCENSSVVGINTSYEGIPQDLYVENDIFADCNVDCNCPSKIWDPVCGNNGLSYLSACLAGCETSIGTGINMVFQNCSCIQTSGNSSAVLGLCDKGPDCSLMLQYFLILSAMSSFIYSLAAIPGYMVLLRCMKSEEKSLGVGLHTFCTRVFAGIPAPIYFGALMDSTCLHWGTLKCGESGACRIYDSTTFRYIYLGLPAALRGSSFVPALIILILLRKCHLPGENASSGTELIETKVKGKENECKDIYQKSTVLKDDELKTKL

[4] = biological target: T3, β2-AR (Homo sapiens, UniProt P07550); assay: Radioligand binding; conditions: read-out: β2-AR affinity by radioligand binding
Text: In contrast, NI-C blocks the fraction of peripheral β2-AR receptors bound by Compound 03-5 to 0.02 while maintaining the fraction of central β2-AR receptors bound by Compound 03-5 to 0.21.

[5] = biological target: T3, β2-AR; assay: Compound 03-5 β2-AR occupancy calculated with the Gaddum equation from measured plasma and CSF concentrations; conditions: alone, no nadolol or isomer competition
[6] = clinical; conditions: human, CSF/plasma
[7] = CSF and plasma concentrations in healthy human subjects dosed with Compound 03-5 and nadolol; conditions: for CSF/Plasma ratio: Day 6; for Concentration in CSF / Concentration in plasma: Day 6, 2 hrs after Compound 03-5 (15 mg), nadolol 20 mg
[8] = biological target: T2, OATP1A2

T1 sequence (P08588 whole entry): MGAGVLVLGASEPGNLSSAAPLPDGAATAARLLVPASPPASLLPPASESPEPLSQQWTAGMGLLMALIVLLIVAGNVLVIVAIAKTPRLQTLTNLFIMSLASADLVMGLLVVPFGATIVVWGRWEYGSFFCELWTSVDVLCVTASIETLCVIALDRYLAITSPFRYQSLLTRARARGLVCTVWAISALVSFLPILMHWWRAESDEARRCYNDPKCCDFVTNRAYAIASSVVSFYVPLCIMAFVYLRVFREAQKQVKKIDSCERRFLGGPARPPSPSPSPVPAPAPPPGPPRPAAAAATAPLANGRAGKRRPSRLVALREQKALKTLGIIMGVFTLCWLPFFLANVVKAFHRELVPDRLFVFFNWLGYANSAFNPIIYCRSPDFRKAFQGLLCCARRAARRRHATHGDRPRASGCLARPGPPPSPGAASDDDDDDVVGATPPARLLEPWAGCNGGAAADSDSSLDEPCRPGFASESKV
T3 sequence (P07550 whole entry): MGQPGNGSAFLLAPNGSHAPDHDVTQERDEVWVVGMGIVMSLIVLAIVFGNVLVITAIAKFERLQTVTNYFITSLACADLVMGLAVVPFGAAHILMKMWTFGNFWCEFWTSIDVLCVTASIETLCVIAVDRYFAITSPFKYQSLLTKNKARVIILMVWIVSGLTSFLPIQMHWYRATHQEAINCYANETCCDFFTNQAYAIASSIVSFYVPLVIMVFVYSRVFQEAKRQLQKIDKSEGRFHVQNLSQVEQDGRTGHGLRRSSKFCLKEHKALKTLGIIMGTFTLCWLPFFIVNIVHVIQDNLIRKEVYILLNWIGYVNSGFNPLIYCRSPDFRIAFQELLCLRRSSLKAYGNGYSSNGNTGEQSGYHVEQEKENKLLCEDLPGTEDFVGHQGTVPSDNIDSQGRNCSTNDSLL

Compound: CC(C)(C)NCC(O)COc1cccc2c1CC(O)C(O)C2 (single isomer, unassigned) [NI-D, (SSR)-nadolol]
Ki [1]: 0.0026 µM | pKi [1]: 8.58 ± 0.18

Compound: CC(C)(C)NCC(O)COc1cccc2c1CC(O)C(O)C2 (single isomer, unassigned) [NI-C, (SRS)-nadolol]
AUCInf ([2]; 1 mg/kg iv): 488 ng·h/mL | C0 ([2]; 1 mg/kg iv): 1142 ng/mL | CL ([2]; 1 mg/kg iv): 34.5 mL/min/kg | T1/2 ([2]; 1 mg/kg iv): 2.87 h | Vss ([2]; 1 mg/kg iv): 4.74 L/kg | AUCInf ([2]; 5 mg/kg po): 200 ng·h/mL | Cmax ([2]; 5 mg/kg po): 37.9 ng/mL | MRT ([2]; 5 mg/kg po): 4.12 h | Tmax ([2]; 5 mg/kg po): 1.08 h | Bioavailability ([2]; 5 mg/kg po vs 1 mg/kg iv): 8.21% | Ki [1]: 0.0046 µM | pKi [1]: 8.34 ± 0.12

Compound: CC(C)(C)NCC(O)COc1cccc2c1CC(O)C(O)C2 (centres unmarked) [(SSR)-NADOLOL]
Substrate for OATP1A2 [3]: does not appear to be a substrate for OATP1A2

Compound: CC(C)(C)NCC(O)COc1cccc2c1CC(O)C(O)C2 (centres unmarked) [(SRS)-NADOLOL]
Substrate for OATP1A2 [3]: appear to be substrates for OATP1A2

Ki [4]: 0.374 µM | Fraction of β2-AR receptors bound by Compound 03-5 in the CSF [5]: 0.29 | Fraction of β2-AR receptors bound by Compound 03-5 in the periphery [5]: 0.46 | Kp [6]: 0.47 | Kp ([6]; oral): 0.42 | CSF/Plasma ratio ([7]; Average of 4 subjects): 47% | Concentration in CSF ([7]; Average of 4 subjects): 34.675 ng/mL | Concentration in plasma ([7]; Average of 4 subjects): 74.25 ng/mL | Concentration in CSF ([7]; Subject A): 37 ng/mL | Concentration in plasma ([7]; Subject A): 87.4 ng/mL | CSF/Plasma ratio ([7]; Subject B): 44% | Concentration in CSF ([7]; Subject B): 27.1 ng/mL | Concentration in plasma ([7]; Subject B): 61.2 ng/mL | CSF/Plasma ratio ([7]; Subject C): 42% | Concentration in CSF ([7]; Subject C): 30.3 ng/mL | Concentration in plasma ([7]; Subject C): 72.9 ng/mL | CSF/Plasma ratio ([7]; Subject D): 59% | Concentration in CSF ([7]; Subject D): 44.3 ng/mL | Concentration in plasma ([7]; Subject D): 75.5 ng/mL
Compound: CC(C)(C)NC[C@H](O)c1cccc(C#N)n1 [Compound 03-5]

Compound: CC(C)(C)NCC(O)COc1cccc2c1CC(O)C(O)C2 (single isomer, unassigned) [NI-A, (RSR)-nadolol]
Ki [1]: 0.891 µM | pKi [1]: 6.05 ± 0.10

Compound: CC(C)(C)NCC(O)COc1cccc2c1CC(O)C(O)C2 (centres unmarked) [Nadolol, reference compound]
Substrate for OATP1A2 [8]: appear to be substrates for OATP1A2 | Ki [1]: 0.0055 µM

Compound: CC(C)(C)NCC(O)COc1cccc2c1CC(O)C(O)C2 (single isomer, unassigned) [NI-B, (RRS)-nadolol]
Ki [1]: 0.354 µM | pKi [1]: 6.45 ± 0.10
